Key:
Sus scrofa = settings: subchronic; duration: 42 days; oral; diet; M/F; Not specified; no effects
Bovidae = settings: subchronic; duration: 42 days; oral; diet; M; no effects
Gallus gallus = settings: subchronic; duration: 36 days; oral; diet; M; Chicken; no effects

Row | SMILES | LEL (Sus scrofa) [mg/kg-day] | LEL (Bovidae) [mg/kg-day] | LEL (Gallus gallus) [mg/kg-day]
1 | COc1ccc2ccccc2c1 [2-Methoxynaphthalene] | 12 | 12 | 12
2 | OCCc1ccccc1 [2-Phenylethanol] | 125 | 125 | 125
3 | O=C1CCCCCCCCCCCCCCO1 [Pentadecan-15-olide] | 100 | 100 | 100
4 | CC(C)CC(=O)OCCc1ccccc1 [Phenethyl isovalerate] | 300 | 300 | 300

More lines, now with the values ahead:

Row | LEL (Sus scrofa) [mg/kg-day] | LEL (Bovidae) [mg/kg-day] | LEL (Gallus gallus) [mg/kg-day] | SMILES
5 | 15 | 15 | 15 | Cc1csc(C(C)C)n1 [2-Isopropyl-4-methylthiazole]
6 | 1250 | 1250 | 1250 | CC(=O)OCCC(C)C [3-Methylbutyl acetate]
7 | 318 | 318 | 318 | CCCCCCC(=O)OCC [Ethyl heptanoate]
8 | 300 | 300 | 300 | C=CC(C)(O)CCC=C(C)C (configuration not stated) [Linalool]
9 | 5 | 5 | 5 | CC1CCC(C(C)(C)S)C(=O)C1 (configuration not stated) [p-Mentha-8-thiol-3-one]
